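1) Cells in 96-well plates. 2) Compound, 48 h, 5 concentrations. 3) Linear interpolation between surrounding doses. 4) Unreached endpoint = highest concentration. GI50: concentration for 50% inhibition of growth.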 The source made the active and inactive calls. No stated cut-off is given here; in the data, active = GI50 up to about 1.1 µM and inactive = higher.
What was measured:
Assay in all cases: NCI anticancer screen, dose series, 48 h
[1] = test system: NCI-H23
[2] = test system: MDA-MB-231
[3] = test system: NCI-H460
[4] = test system: TK-10
[5] = test system: DMS-114
[6] = test system: UACC-257
[7] = test system: SR
[8] = test system: KM-20L2
[9] = test system: A498
[10] = test system: A549
[11] = test system: MCF7
[12] = test system: CCRF-CEM
[13] = test system: EKVX
[14] = test system: HL-60
[15] = test system: PC-3
[16] = test system: BT-549
[17] = test system: NCI-H522
[18] = test system: SF-268
[19] = test system: HCC 2998
[20] = test system: HCT-15
[21] = test system: SNB-19
[22] = test system: OVCAR-4
[23] = test system: M14
[24] = test system: HT-29
[25] = test system: NCI-H226
[26] = test system: Hs-578T
[27] = test system: SK-MEL-5
[28] = test system: IGROV-1
[29] = test system: HOP-92
[30] = test system: SNB-75
[31] = test system: SK-OV-3
[32] = test system: OVCAR-5
[33] = test system: M19-MEL
[34] = test system: SF-539
[35] = test system: SN12C
[36] = test system: HCT-116
[37] = test system: MDA-N
[38] = test system: SF-295
[39] = test system: MDA-MB-435
[40] = test system: SW-620
[41] = test system: SK-MEL-2
[42] = test system: OVCAR-3
[43] = test system: LXFL 529
[44] = test system: U-251
[45] = test system: MOLT-4
[46] = test system: NCI/ADR-RES
[47] = test system: T47D
[48] = test system: 786-0
[49] = test system: OVCAR-8
[50] = test system: KM12
[51] = test system: Malme-3M
[52] = test system: RXF 393
[53] = test system: UO-31
[54] = test system: COLO 205
[55] = test system: HOP-62
[56] = test system: RPMI-8226
[57] = test system: K562
[58] = test system: DU-145
[59] = test system: SK-MEL-28
[60] = test system: LOX IMVI
[61] = test system: CAKI-1
[62] = test system: ACHN
[63] = test system: RXF 631
[64] = test system: UACC-62
[65] = test system: SNB-78
[66] = test system: XF498
[67] = test system: DMS-273
[68] = test system: HOP-18
[69] = test system: DLD-1

`C/C(=N\Nc1ccccc1)C(CN(C)C)C(c1ccccc1)c1c(O)c2ccccc2oc1=O` (configuration not stated) was tested, and the GI50 [1] was > 100 µM (inactive), the GI50 [2] was > 100 µM (inactive) and the GI50 [3] was > 100 µM (inactive). The GI50 [4] was > 100 µM (inactive), the GI50 [5] was > 100 µM (inactive) and the GI50 [6] was > 100 µM (inactive). For the same molecule, the GI50 [7] was 85.9 µM (inactive), the GI50 [8] was > 100 µM (inactive) and the GI50 [9] was > 100 µM (inactive). For the same molecule, the GI50 [10] was > 100 µM (inactive), the GI50 [11] was > 100 µM (inactive) and the GI50 [12] was > 83.8 µM (inactive). For the same molecule, the GI50 [13] was > 100 µM (inactive), the GI50 [14] was > 59.8 µM (inactive) and the GI50 [15] was > 100 µM (inactive). The GI50 [16] was > 100 µM (inactive), the GI50 [17] was > 100 µM (inactive) and the GI50 [18] was > 100 µM (inactive). For the same molecule, the GI50 [19] was > 100 µM (inactive), the GI50 [20] was over 100 µM and the GI50 [21] was > 100 µM (inactive). For the same molecule, the GI50 [22] was > 100 µM (inactive), the GI50 [23] was > 100 µM (inactive) and the GI50 [24] was > 100 µM (inactive). For the same molecule, the GI50 [25] was > 100 µM (inactive), the GI50 [26] was > 100 µM (inactive) and the GI50 [27] was > 100 µM (inactive). The GI50 [28] was > 100 µM (inactive), the GI50 [29] was > 35.2 µM (inactive) and the GI50 [30] was > 77.3 µM (inactive). For the same molecule, the GI50 [31] was > 100 µM (inactive), the GI50 [32] was > 100 µM (inactive) and the GI50 [33] was > 100 µM (inactive). For the same molecule, the GI50 [34] was > 100 µM (inactive), the GI50 [35] was > 100 µM (inactive) and the GI50 [36] was > 100 µM (inactive). The GI50 [37] was > 100 µM (inactive), the GI50 [38] was > 100 µM (inactive) and the GI50 [39] was > 100 µM (inactive). The GI50 [40] was > 100 µM (inactive), the GI50 [41] was > 100 µM (inactive) and the GI50 [42] was > 100 µM (inactive). For the same molecule, the GI50 [43] was > 100 µM (inactive), the GI50 [44] was > 100 µM (inactive) and the GI50 [45] was 42.1 µM (inactive). The GI50 [46] was > 100 µM (inactive), the GI50 [47] was 89.3 µM (inactive) and the GI50 [48] was > 100 µM (inactive). For the same molecule, the GI50 [49] was > 100 µM (inactive), the GI50 [50] was > 100 µM (inactive) and the GI50 [51] was > 83 µM (inactive). The GI50 [52] was > 100 µM (inactive), the GI50 [53] was > 100 µM (inactive) and the GI50 [54] was > 68.9 µM (inactive). The GI50 [55] was > 100 µM (inactive), the GI50 [56] was > 66.7 µM (inactive) and the GI50 [57] was > 100 µM (inactive). The GI50 [58] was > 100 µM (inactive), the GI50 [59] was > 100 µM (inactive) and the GI50 [60] was > 100 µM (inactive). The GI50 [61] was > 100 µM (inactive), the GI50 [62] was > 100 µM (inactive) and the GI50 [63] was > 100 µM (inactive). The GI50 [64] was > 100 µM (inactive).

For `CC[C@@]1(O)C(=O)OCc2c1cc1n(c2=O)Cc2c-1nc1ccccc1c2Cl`, the GI50 [1] was < 0.01 µM (active), the GI50 [2] was 8.32 µM (inactive) and the GI50 [3] was < 0.01 µM (active). The GI50 [4] was 6.21 µM (inactive), the GI50 [5] was < 0.0104 µM (active) and the GI50 [6] was 0.112 µM (active). The GI50 [7] was < 0.01 µM (active), the GI50 [65] was 2.65 µM (inactive) and the GI50 [8] was 0.216 µM (active). The GI50 [9] was 0.0237 µM (active), the GI50 [10] was < 0.01 µM (active) and the GI50 [11] was < 0.01 µM (active). For the same molecule, the GI50 [12] was < 0.01 µM (active), the GI50 [13] was 0.659 µM (active) and the GI50 [14] was < 0.01 µM (active). For the same molecule, the GI50 [15] was < 0.0214 µM (active), the GI50 [16] was < 0.0136 µM (active) and the GI50 [17] was < 0.0127 µM (active). The GI50 [18] was < 0.01 µM (active), the GI50 [19] was 0.521 µM (active) and the GI50 [20] was 0.267 µM. The GI50 [21] was < 0.0107 µM (active), the GI50 [22] was 0.56 µM (active) and the GI50 [23] was < 0.0133 µM (active). The GI50 [24] was 0.0461 µM (active), the GI50 [25] was < 0.01 µM (active) and the GI50 [26] was 4.52 µM (inactive). The GI50 [27] was < 0.0141 µM (active), the GI50 [28] was 0.211 µM (active) and the GI50 [29] was 0.0724 µM (active). The GI50 [30] was 0.0123 µM (active), the GI50 [31] was 0.0217 µM (active) and the GI50 [32] was 0.0811 µM (active). For the same molecule, the GI50 [33] was 0.08 µM (active), the GI50 [34] was < 0.01 µM (active) and the GI50 [35] was < 0.01 µM (active). The GI50 [36] was 0.0168 µM (active), the GI50 [37] was 0.069 µM (active) and the GI50 [38] was < 0.01 µM (active). The GI50 [39] was 0.0984 µM (active), the GI50 [40] was 0.0348 µM (active) and the GI50 [41] was 0.396 µM (active). For the same molecule, the GI50 [42] was 0.296 µM (active), the GI50 [66] was 0.0767 µM (active) and the GI50 [43] was 0.935 µM (active). The GI50 [44] was < 0.01 µM (active), the GI50 [45] was < 0.01 µM (active) and the GI50 [46] was < 0.01 µM (active). For the same molecule, the GI50 [47] was < 0.01 µM (active), the GI50 [67] was < 0.01 µM (active) and the GI50 [48] was < 0.01 µM (active). For the same molecule, the GI50 [49] was 0.0146 µM (active), the GI50 [50] was 0.124 µM (active) and the GI50 [51] was 0.239 µM (active). The GI50 [68] was 0.0598 µM (active), the GI50 [52] was < 0.0132 µM (active) and the GI50 [53] was < 0.01 µM (active). For the same molecule, the GI50 [54] was 0.658 µM (active), the GI50 [55] was < 0.01 µM (active) and the GI50 [56] was < 0.0151 µM (active). The GI50 [57] was 0.0329 µM (active), the GI50 [58] was < 0.01 µM (active) and the GI50 [69] was 0.877 µM (active). The GI50 [59] was 0.204 µM (active), the GI50 [60] was < 0.01 µM (active) and the GI50 [61] was < 0.01 µM (active). For the same molecule, the GI50 [62] was < 0.01 µM (active) and the GI50 [64] was < 0.01 µM (active).
